# Source: patent publication EP0888340B1, “4-(BENZO-1,3-DIOXOLYL)-PYRROLIDINE-3-CARBOXYLIC ACID DERIVATIVES AS ENDOTHELIN ANTAGONISTS” (Abbott Laboratories, priority 1996, dated 1997)
# Target: T1, ETB Receptor (Sus scrofa, UniProt P35463)
# T1 construct: Porcine cerebellum was homogenized in 25 volumes (w/v) of 10 mM Hepes (pH 7.4); from tissue; host or cells: porcine cerebellum membranes
# T1 sequence (P35463 27-443): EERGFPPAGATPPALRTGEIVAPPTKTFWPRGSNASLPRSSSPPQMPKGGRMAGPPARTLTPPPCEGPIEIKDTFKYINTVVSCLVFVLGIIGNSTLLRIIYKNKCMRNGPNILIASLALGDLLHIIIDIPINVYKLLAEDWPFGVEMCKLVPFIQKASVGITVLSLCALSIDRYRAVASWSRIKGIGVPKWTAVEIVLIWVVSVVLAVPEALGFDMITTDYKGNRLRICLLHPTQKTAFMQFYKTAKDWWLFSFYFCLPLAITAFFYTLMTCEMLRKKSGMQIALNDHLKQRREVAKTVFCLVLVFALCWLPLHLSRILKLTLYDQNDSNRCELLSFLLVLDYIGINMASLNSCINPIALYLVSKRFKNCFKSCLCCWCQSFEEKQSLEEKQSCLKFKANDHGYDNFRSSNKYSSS
# Assay: ETB receptor binding assay: [125I]ET-3 binding to membranes
# Conditions: test compound 1 µM; displacement of 0.1 nM [125I]ET-3; Porcine cerebellum membranes; 4 hours at 25 °C
# Method: Preparation of membranes from Porcine cerebellum:
# Porcine cerebellum was homogenized in 25 volumes (w/v) of 10 mM Hepes (pH 7.4) containing 0.25 M sucrose and protease inhibitors (3 mM EDTA, 0.1 mM PMSF, and 5 µg/ml Pepstatin A) by 3-10 sec polytron at 13,500 rpm with 10 sec intervals. The mixture was centrifuged at 1000xg for 10 min. The supernatant was collected and centrifuged at 30,000xg for 30 min. The precipitate was resuspended in Buffer A (20 mM Tris, 100 mM NaCl, 10 mM MgCl2, pH 7.4) containing the aforementioned protease inhibitors and centrifuged again. The final pellet was resuspended in Buffer A containing protease inhibitors and stored at -80°C until used. Protein content was determined by the Bio-Rad dye-binding protein assay.
# [^125I]ET-3 binding to membranes:
# Binding assays were performed in 96-well microtiter plates pretreated with 0.1% BSA. Membranes prepared from cells were diluted ∼100 fold in Buffer B (20 mM Tris, 100 mM NaCl, 10 mM MgCl2, pH 7.4, with 0.2% BSA, 0.1 mM PMSF, 5 µg/mL Pepstatin A, 0.025% bacitracin, and 3 mM EDTA) to a final concentration of 0.2 mg/mL of protein. In competition studies, membranes (0.02 mg) were incubated with 0.1 nM of [^125I]ET-3 in Buffer B (final volume: 0.2 mL) in the presence of increasing concentrations of unlabeled ET-3 or a test compound for 4 hours at 25 °C. After incubation, unbound ligands were separated from bound ligands by a vacuum filtration method using glass-fiber filter strips in PHD cell harvesters (Cambridge Technology, Inc., MA), followed by washing the filter strips with saline (1 mL) for three times. Nonspecific binding was determined in the presence of 1 µM ET-1. The per cent inhibition at a concentration of 1 µM is shown. […]
row,Structure (SMILES),inhibition at 1 µM [%]
1,"CCOc1ccc([C@H]2[C@H](C(=O)O)[C@@H](c3ccc4c(c3)OCO4)CN2CC(=O)Nc2c(CC)cccc2CC)cc1 [Example 23, (2R,3R,4S)-2-(4-ethoxyphenyl)-4-(1,3-benzodioxol-5-yl)-1-((2,6-diethyl)phenylaminocarbonylmethyl)-pyrrolidine-3-carboxylic acid]",99.1
2,"CCc1cc([N+](=O)[O-])cc(CC)c1NC(=O)CN1C[C@H](c2ccc3c(c2)OCO3)[C@@H](C(=O)O)[C@@H]1c1ccc(OC)cc1 [Example 25, trans,trans-2-(4-methoxyphenyl)-4-(1,3-benzodioxol-5-yl)-1-((4-nitro-2,6-diethyl)phenylaminocarbonylmethyl)-pyrrolidine-3-carboxylic acid]",95.7
3,"COc1ccc([C@H]2[C@H](C(=O)O)[C@@H](c3ccc4c(c3)OCO4)CN2CC(=O)Nc2c(C)cccc2C(C)C)cc1 [Example 26, trans,trans-2-(4-methoxyphenyl)-4-(1,3-benzodioxol-5-yl)-1-((2-isopropyl-6-methyl)phenylaminocarbonylmethyl)-pyrrolidine-3-carboxylic acid]",98
4,"CCc1cccc(OC)c1NC(=O)CN1C[C@H](c2ccc3c(c2)OCO3)[C@@H](C(=O)O)[C@@H]1c1ccc(OC)cc1 [Example 27, trans,trans-2-(4-Methoxyphenyl)-4-(1,3-benzodioxol-5-yl)-1-(N-(2-ethyl-6-methoxy)phenylaminocarbonylmethyl)-pyrrolidine-3-carboxylic acid]",98.8

# Further lines, results first:
row,inhibition at 1 µM [%],Structure (SMILES)
1,95.3,"CCc1cc(C)cc(CC)c1NC(=O)CN1C[C@H](c2ccc3c(c2)OCO3)[C@@H](C(=O)O)[C@@H]1c1ccc(OC)cc1 [Example 22, trans,trans-2-(4-methoxyphenyl)-4-(1,3-benzodioxol-5-yl)-1-((2,6-diethyl-4-methyl)phenylaminocarbonylmethyl)-pyrrolidine-3-carboxylic acid]"
2,93.3,"CCc1cc(C(=O)O)cc(CC)c1NC(=O)CN1C[C@H](c2ccc3c(c2)OCO3)[C@@H](C(=O)O)[C@@H]1c1ccc(OC)cc1 [Example 24, trans,trans-2-(4-methoxyphenyl)-4-(1,3-benzodioxol-5-yl)-1-((4-carboxy-2,6-diethyl)phenylaminocarbonylmethyl)-pyrrolidine-3-carboxylic acid]"
